Measured values as given in US12247224B2, “Organoids for drug screening and personalized medicine” (SENTING, LLC, priority 2014, dated 2025).

Assays:
Type in all cases: cell-based, human
progenitor-organoids = test: Toxicity of epigenetic inhibitors to normal cells in progenitor-organoids; details: compared with JQ1, LAQ824, SGC0946, data not shown
Procedure: (§1) For pancreas progenitor organoid culture, T9 cells were resuspended and plated in the PTOM (Pancreatic Progenitor and Tumor Organoid Media) containing DMEM with factors including serum-free supplements, FGFs, and insulin. The cells were plated on a bed of Matrigel as described before 3. At day 8 in 3D culture, replace culture medium with fresh POMM (Pancreatic Organoid Maintenance Media) (PTOM media without FGFs) with 5% Matrigel every 4 days. PODM I (Pancreatic Organoid Differentiation Media) contains DMEM with B27, 2-phospho ascorbic acid, FGF, EGF, TGF beta inhibitors. PODM II contains DMEM with B27, 2-phospho ascorbic acid, FGF, EGF. Fresh tissues of primary tumors from patients were washed twice with DMEM, digested with collagenase (Roche) and resuspended in PTOM. Tumor cells were then seeded in 3D culture chambers as described above. Culture media were replaced every 4 days. For serial passaging of organoids, day 16 organoids were treated with collagenase for 2 hours then further dissociated with trypsin for 10-30 minutes. Cells were collected and re-seeded in 3D culture following protocols as described above. MCF-10A cells were obtained from ATCC. Gene expression data will be uploaded into NCBI's Gene Expression Omnibus (GEO). […]

[1] = test system: tumor-organoids UHN6, UHN17, UHN3, UHN5 and UHN15 (primary PDAC); test: MTT assay of tumor-organoid cultures treated with drugs
Description: (§2) (A) Time lapse imaging sequence of UHN6 derived organoids. (B) H&E, phase and immunofluorescence images for KRT19 (bright) and DAPI (dark) of images of tumor-organoids and their matched primary tumors. ((C) H&E images showing maintenance of inter-organoid heterogeneity in histoarchitecture representing variation in primary patient tumor. (D) Normalized MTT assay readings of organoid cultures treated with gemcitabine for 4 days. E) Normalized MTT assay readings of organoid cultures with gemcitabine and epigenetic inhibitor of the H3K27me3 writer EZH2 (UNC1999). (F) Normalized MTT reading of tumor-organoids treated with UNC199 alone. See online Methods for details. (G) Immunostaining for H3K27me3 (bright) in two primary patient tumors (top panel) and corresponding tumor-organoids (bottom panel). (H) Basal 02 consumption as measured by Seahorse™ flux analyzer with and without UNC1999 treatment. For MTT and oxygen consumptions experiments, data represent mean+/−S.D. P value (t-test, two tailed): N.S-, not significant; *−p=0.01-0.05; **−p=0.001-0.01; ***, p=<0.001 (n=3). All scale bars equal to 50 μm.
(§3) For MTT and oxygen consumptions experiments, data represent mean+/− S.D. P value (t-test, two tailed): N.S-, not significant; *−p=0.01-0.05; **−p=0.001-0.01; ***, p=<0.001 (n=3). (B) Immunostaining for H3K27me3 in control (DMSO) or UNC 1999-treated tumor-organoids. Scale bars, 50 μm. (C) Tumor-organoids (top panel) and primary tumors (bottom panel) derived from tumor UHN3, UHN 5 and UHN15, show consistent patient-specific variation in staining for H3K27me3. Scale bars, 50 μm.
as §1, with “above.” for “above. MCF-10A cells were obtained from ATCC. Gene expression data will be uploaded into NCBI's Gene Expression Omnibus (GEO).”
We analyzed five organoid cultures, UHN6, UHN17, UHN3, UHN5 and UHN15. […]

[2] = test system: tumor-organoids UHN17, UHN3; test: Basal O2 consumption measured by Seahorse flux analyzer with and without UNC1999
Description: as §2
Recent studies reveal a relationship between oxygenation and regulation of H3K27me3 epigenetic mark^28,29. […] We measured basal respiration rates to investigate if tumor-organoids show differences in oxygen consumption. […]

[3] = test system: H3K27me3 mark in UHN17 organoids; test: Immunostaining for H3K27me3 in control (DMSO) or UNC1999-treated tumor-organoids; details: at concentrations with significant growth-inhibitory effects
Description: as §3
Inhibitors of BET (JQ1), histone deacetylase (LAQ824), DOT1L (SGC0946), G9a (A366) and EZH2 (UNC1999) were tested in progenitor-organoids to investigate their toxicities to normal cells. […] A366 and UNC1999 were administered to organoid cultures in combination with the current standard of care, gemcitabine (See FIG. 6 legend and FIG. 12). Organoids were not sensitive to G9a inhibition (FIG. 12A).

| Compound | toxicity to normal cells (progenitor-organoids) | sensitivity of organoids to G9a inhibition (MTT) ([1]; in combination with gemcitabine, tumor-organoids) | growth inhibition in MTT assays ([1]; gemcitabine for 4 days, all five organoid cultures UHN6, UHN17, UHN3, UHN5, UHN15) [%] | basal oxygen consumption after EZH2 inhibition [2] | H3K27me3 mark after treatment [3] | suppression of proliferation by EZH2 inhibition alone (MTT) ([1]; UNC1999 alone, UHN17, UHN3, UHN5) | proliferation upon EZH2 inhibition compared to gemcitabine treatment alone (MTT) ([1]; in combination with gemcitabine, UHN17, UHN3, UHN5, UHN15) |
| --- | --- | --- | --- | --- | --- | --- | --- |
| COc1cc2c(cc1OCCCN1CCCC1)N=C(N)C21CCC1 [A366] | least toxic | not sensitive | – | – | – | – | – |
| Nc1ccn([C@@H]2O[C@H](CO)[C@@H](O)C2(F)F)c(=O)n1 [gemcitabine] | – | – | 30 | – | – | – | – |
| CCCc1cc(C)[nH]c(=O)c1CNC(=O)c1cc(-c2ccc(N3CCN(C(C)C)CC3)nc2)cc2c1cnn2C(C)C [UNC1999] | least toxic | – | – | suppressed | suppressed the H3K27me3 mark | effective in suppressing proliferation | dose-dependent decreases in proliferation |
